Two compounds from patent US20070179155A1, “N-phenyl-piperazine derivatives and methods of prophylaxis or treatment of 5ht2c receptor associated diseases” (priority 2003, published 2007) can be followed below.

One test deals with T1, human 5HT2C receptor (Homo sapiens, UniProt P28335).
T1 construct: expressed in transfected cells; host or cells: HEK293
T1 sequence (P28335 33-458): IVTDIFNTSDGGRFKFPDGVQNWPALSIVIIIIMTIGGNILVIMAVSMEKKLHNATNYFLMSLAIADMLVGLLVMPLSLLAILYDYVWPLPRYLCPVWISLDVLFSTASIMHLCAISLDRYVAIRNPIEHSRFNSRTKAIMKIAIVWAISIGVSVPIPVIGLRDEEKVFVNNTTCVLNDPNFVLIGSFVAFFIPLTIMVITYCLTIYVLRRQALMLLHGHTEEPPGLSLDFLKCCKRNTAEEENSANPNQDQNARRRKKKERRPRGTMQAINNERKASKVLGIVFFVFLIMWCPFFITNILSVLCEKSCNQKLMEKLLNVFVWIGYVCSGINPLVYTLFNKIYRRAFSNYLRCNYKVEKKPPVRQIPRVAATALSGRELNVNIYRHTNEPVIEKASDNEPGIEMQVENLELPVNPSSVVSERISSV
Nature of the test: Intracellular IP3 accumulation assay (IP Accumulation Assay). The format is cell-based. The note with it: HEK293 cells transfected with human 5HT2C receptor cDNA. Here is the method: HEK293 cells were transfected in 15 cm sterile dishes with or without (control) 16 ug of human 5HT2C receptor cDNA [for example see, Saltzman, A. G., et al. Biochem. Biophys. Res. Commun. 181, 1469-1478 (1991)] using 25 ul of lipofectamine. Cells were then incubated for 3-4 hours at 37° C./5% CO2 and then transfection media was removed and replaced with 100 ul of DMEM. Cells were then plated onto 100 cm sterile dishes. The next day cells were plated into 96 well PDL microtiter plates at a density of 55K/0.2 ml. Six hours latter, media was exchanged with [^3H]inositol (0.25 uCi/well) in inositol free DMEM and plates were incubated at 37° C./5% CO2 overnight. The next day, wells were aspirated and 200 ul of DMEM containing test compound, 10 uM pargyline, and 10 mM LiCl was added to appropriate wells. Plates were then incubated at 37° C./5% CO2 for three hours followed aspiration and by addition of fresh ice cold stop solution (1M KOH, 19 mM Na-borate, 3.8 mM EDTA) to each well. Plates were kept on ice for 5-10 min and the wells were neutralized by addition of 200 ul of fresh ice cold neutralization solution (7.5% HCl). Plates were then frozen until further processing is desired. The lysate was then transferred into 1.5 ml Eppendorf tubes and 1 ml of chloroform/methanol (1:2) was added/tube. […]

A further test has as its target 5HT2A receptor (Homo sapiens, UniProt P28223). Nature of the test: EC50 against the 5HT2A receptor (selectivity). In kind it is cell-based.
The target of the next test is 5HT2B receptor (Homo sapiens, UniProt P41595). Description: Activity against the 5HT2B receptor (selectivity). In kind it is cell-based.
The test system of another test is basal food intake. Nature of the test: Inhibition of basal food intake in rats. The note with it: p.o.; for ED50: Rattus norvegicus, po. The format is in vivo, Male Sprague-Dawley rats. Here is the method: Male Sprague-Dawley rats (225-325 g) were accustomed to a reverse day/night schedule (lights on 6:30 pm to 10:30 am) for at least 10 days prior to testing. On the test day, the animals were weighed and placed into individual cages (no bedding) at 9:00 am with free access to water. At 10:00 am, animals were injected with test compound or vehicle (2 ml/kg, p.o.), with treatment groups counter-balanced according to animal weights. Immediately upon lights out at 10:30 am, each animal was presented with a pre-weighed amount of food in a dish. Food consumption over different time points was then determined by weighing the food cup at 2, 4, 6 and 22 hrs after the food was presented. Thus, food consumption was measured at 2.5, 4.5, 6.5, and 22.5 hrs post-injection.

Chain of 5HT2A receptor (P28223 whole entry): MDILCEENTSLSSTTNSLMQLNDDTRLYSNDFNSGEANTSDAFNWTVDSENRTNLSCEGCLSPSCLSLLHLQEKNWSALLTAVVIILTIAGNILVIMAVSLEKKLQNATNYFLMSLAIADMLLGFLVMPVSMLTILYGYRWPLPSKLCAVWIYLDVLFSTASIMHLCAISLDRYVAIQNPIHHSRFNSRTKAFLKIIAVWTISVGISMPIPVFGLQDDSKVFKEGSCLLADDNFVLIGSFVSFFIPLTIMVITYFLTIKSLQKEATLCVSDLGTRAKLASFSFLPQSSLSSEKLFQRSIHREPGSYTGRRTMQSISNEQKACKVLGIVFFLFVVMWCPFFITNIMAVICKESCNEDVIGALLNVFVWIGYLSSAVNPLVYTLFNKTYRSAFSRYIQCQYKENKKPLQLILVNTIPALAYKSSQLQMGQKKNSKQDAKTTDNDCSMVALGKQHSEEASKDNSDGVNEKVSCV
Chain of 5HT2B receptor (P41595 whole entry): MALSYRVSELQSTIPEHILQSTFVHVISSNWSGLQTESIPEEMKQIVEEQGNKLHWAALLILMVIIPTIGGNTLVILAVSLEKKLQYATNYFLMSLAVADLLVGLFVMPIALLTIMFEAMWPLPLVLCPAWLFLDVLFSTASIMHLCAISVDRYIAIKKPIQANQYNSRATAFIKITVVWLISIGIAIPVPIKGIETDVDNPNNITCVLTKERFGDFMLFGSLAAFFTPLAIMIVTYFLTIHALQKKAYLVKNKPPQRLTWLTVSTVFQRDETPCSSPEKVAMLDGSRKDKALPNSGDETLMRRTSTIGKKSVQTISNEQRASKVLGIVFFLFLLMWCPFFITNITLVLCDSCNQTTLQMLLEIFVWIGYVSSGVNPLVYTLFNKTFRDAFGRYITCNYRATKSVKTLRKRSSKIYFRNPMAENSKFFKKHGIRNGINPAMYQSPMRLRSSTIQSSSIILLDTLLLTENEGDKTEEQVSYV

Usually EC50 stands for the concentration that produces a half-maximal response. Low readings indicate greater potency, high ones weaker potency. In the case of `C[C@@H]1CNCCN1c1cccc(Cl)c1F` [Compound 23, (R)-1-(3-Chloro-2-fluoro-phenyl)-2-methyl-piperazine], the values for the half-maximal effective concentration (EC50) on human 5HT2C receptor and on 5HT2A receptor were 7.4 nM and 44 nM, respectively. Further, at 5HT2B receptor, the “activity against the 5HT2B receptor” value was “essentially inactive”.

The ED50 is the midpoint of the dose-response relation. High values mean a need for a large dose, low ones an effect at a small dose. As to `C[C@@H]1CNCCN1c1cc(Cl)ccc1F` [Compound 44, (R)-1-(5-Chloro-2-fluoro-phenyl)-2-methyl-piperazine], the concentration giving a half-maximal response (EC50) at human 5HT2C receptor was 8 nM; on 5HT2A receptor, 529 nM. In addition, at 5HT2B receptor, the “activity against the 5HT2B receptor” value was “essentially inactive”. For the same compound, the ED50 with basal food intake (2 h, 2 hours after food presentation) turned out to be 33 µmol/kg; in the test on basal food intake (4 h, 4 hours after food presentation), 58 µmol/kg; in the test on basal food intake (6 h, 6 hours after food presentation), 97 µmol/kg; in the test on basal food intake (22 h, 22 hours after food presentation), 441 µmol/kg. Besides, the “effect on food intake relative to vehicle-treated controls” value in the test on basal food intake (all doses, first 4 hr after food presentation) is “inhibited food intake relative to vehicle-treated controls”. Moreover, the “duration of food intake inhibition” value with basal food intake (highest dose tested) is listed as “maintained to 22 hrs after food presentation”.
